Measurements reported in article PMC6479814, “Structure-Based Design of Novel Benzimidazole Derivatives as Pin1 Inhibitors” (Molecules, 2019).
Like-named read-outs stand apart in the source and are kept apart here.

Legend:
[1] = target: T1, Pin1 (Homo sapiens, UniProt Q13526); details: known Pin1 inhibitors, Figure 1; cited from earlier work
T1 construct: purchased Sino Biological Inc., Beijing, China

[2] = system: tumor cells; set-up: method as in PMID 19729306, PMID 20207139, PMID 25091930; details: result in words; cited from earlier work
[3] = target: T1, Pin1; experiment: Pin1 inhibition, protease-coupled assay; assay type: biochemical; details: 10 °C; for inhibition at 10 µM: Pin1, compound at 10 μM; for IC50: Pin1, protease-coupled assay
Method: To investigate the Pin1 inhibitory potency of all synthesized compounds, the inhibition ratio at 10 μM or IC50 of all synthesized compounds was determined using protease-coupled assay.
Pin1 inhibitory activities were measured at 10 °C by protease-coupled assay as reported previous. Suc-Ala-Glu-cis-Pro-Phe-4-nitroaniline (Bachem, Bubendorf, Switzerland) in 0.47 mol/L, LiCl/trifluoroethanol was used as the substrate. The assay buffer (860 μL of 35 mM HERES at pH 7.8), Pin1 (20 μL, Bought from Sino Biological Inc., Beijing, China) and target compounds (10 μL of varying comcentrations in DMSO) were pre-equilibtated in the cuvette at 10 °C for 30 min. Then, 150 uL of ice-cooled chymotrypsin (60 mg/mL in 0.001 M/HCl) was added and mixed immediately. Additional substrate (40 μL) was added to start the assay and the reaction was monitored by absorbance at 390 nm for 90 s. For each compound, four concentrations (10 μM, 3.3 μM, 1.1 μM, 0.37 μM) were chosen, and the assay was performed in duplicate. The data was analyzed by Graphpad Prism 6.0.

[4] = system: PC-3 cells; experiment: In vitro anti-proliferative MTT assay; assay type: cell-based, human; details: Homo sapiens; PC-3 cells, MTT, 96 h
Method: As for Pin1 was overexpressed in human prostate cancer cells, the antiproliferative activity of these benzimidazole derivatives against PC-3 cells were further evaluated by MTT assay. Meanwhile, the polar surface area (PSA) of these compounds was calculated under the optimal conformation since PSA is the key indicator of membrane permeability.
The tested cells were plated in 96-well microtiter plates with a density of 2,000 cells/well and incubated in a humidified atmosphere with 5% CO2 at 37 °C for 24 h. The cells were then exposed to tested compounds of different concentrations in triplicate. After incubated for 96 h, 50 μL of 3-(4,5-dimethylthiazol-2-yl)-2,5-diphenyltetrazolium bromide (MTT) solution (2 mg/mL) was added to each well and incubated for an additional 4 h. Then the suspernatant was discarded and the fromazan was dissolved in 200 μL of dimethyl sulfoxide (DMSO). The plate was oscillated subtly at room temperature for 10 min before the absorbance was measured at 570 nm by a microplate reader. Cell inhibitory ratio was calculated with the following formula:Inhibitory Rate (%) = [(Acontrol − Atreated)/Acontrol] × 100%(1)
The GI50 was determined as the concentration that caused half inhibition of cell proliferation. All experiments were performed three times independently, and the results were reported presented as the mean.

[5] = set-up: method as in PMID 29170140; details: in humans; cited from earlier work

T1 sequence (Q13526 whole entry): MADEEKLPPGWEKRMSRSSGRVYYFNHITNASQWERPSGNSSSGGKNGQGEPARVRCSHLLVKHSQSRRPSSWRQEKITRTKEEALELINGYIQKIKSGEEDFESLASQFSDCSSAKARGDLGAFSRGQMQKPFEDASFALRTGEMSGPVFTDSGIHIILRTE

| Compound | melting point | inhibition at 10 µM [3] | GI50 [4] | IC50 [3] | IC50 [1] | antiproliferative activities against tumor cells [2] | half-life [5] |
| --- | --- | --- | --- | --- | --- | --- | --- |
| Nc1nc(OCc2ccc(CNC(=O)C(F)(F)F)cc2)c2nc[nH]c2n1 [API-1] |  |  |  |  | 70 nM |  |  |
| O=Cc1nc2ccccc2[nH]1 [Compound 2] |  |  |  |  |  | did not exhibit antiproliferative activities |  |
| COc1cc(NC(=O)CCn2c(/C=C/C(=O)O)nc3ccccc32)cc(OC)c1 [Compound 6i, (E)-3-(1-(3-((3,5-dimethoxyphenyl)amino)-3-oxopropyl)-1H-benzo[d]imidazol-2-yl)acrylic acid] | 203 to 204 °C | 60% | > 50000 nM |  |  |  |  |
| CC1=C(/C=C/C(C)=C/C=C/C(C)=C/C(=O)O)C(C)(C)CCC1 [ATRA, all-trans retinoic acid] |  |  |  |  |  |  | 45 min |
| O=C(O)/C=C/c1nc2ccccc2n1CCC(=O)Nc1ccccc1 [Compound 6c, (E)-3-(1-(3-Oxo-3-(phenylamino)propyl)-1H-benzo[d]imidazol-2-yl)acrylic acid] | 228 to 230 °C | 46% | > 50000 nM |  |  |  |  |

More lines, main results first:

| melting point | inhibition at 10 µM [3] | GI50 [4] | IC50 [3] | Compound | IC50 [1] | antiproliferative activities against tumor cells [2] | half-life [5] |
| --- | --- | --- | --- | --- | --- | --- | --- |
| 223 to 225 °C | 75% | > 50000 nM |  | COc1cccc(NC(=O)CCn2c(-c3nc(C(=O)O)cs3)nc3ccccc32)c1 [Compound 13d, 2-(1-(3-((3-Methoxyphenyl)amino)-3-oxopropyl)-1H-benzo[d]imidazol-2-yl)thiazole-4-carboxylic acid] |  |  |  |
| 178 to 180 °C | 99% | > 50000 nM | 370 nM | O=C(CCn1c(-c2nc(C(=O)O)cs2)nc2ccccc21)Nc1cccc(C(F)(F)F)c1 [Compound 13g, 2-(1-(3-Oxo-3-((3-(trifluoromethyl)phenyl)amino)propyl)-1H-benzo[d]imidazol-2-yl)thiazole-4-carboxylic acid] |  |  |  |
| 192 to 194 °C | 80% | > 50000 nM | 1350 nM | O=C(CCn1c(-c2nc(C(=O)O)cs2)nc2ccccc21)Nc1cc(Cl)cc(Cl)c1 [Compound 13i, 2-(1-(3-((3,5-Dichlorophenyl)amino)-3-oxopropyl)-1H-benzo[d]imidazol-2-yl)thiazole-4-carboxylic acid] |  |  |  |
